Laboratory results from ChEMBL document CHEMBL1153328, “5-Aminomethylbenzimidazoles as potent ITK antagonists” (Bioorg Med Chem Lett, 2009).

Biological target: T1, Tyrosine-protein kinase ITK/TSK (Homo sapiens, UniProt Q08881)
T1 sequence (Q08881 whole entry): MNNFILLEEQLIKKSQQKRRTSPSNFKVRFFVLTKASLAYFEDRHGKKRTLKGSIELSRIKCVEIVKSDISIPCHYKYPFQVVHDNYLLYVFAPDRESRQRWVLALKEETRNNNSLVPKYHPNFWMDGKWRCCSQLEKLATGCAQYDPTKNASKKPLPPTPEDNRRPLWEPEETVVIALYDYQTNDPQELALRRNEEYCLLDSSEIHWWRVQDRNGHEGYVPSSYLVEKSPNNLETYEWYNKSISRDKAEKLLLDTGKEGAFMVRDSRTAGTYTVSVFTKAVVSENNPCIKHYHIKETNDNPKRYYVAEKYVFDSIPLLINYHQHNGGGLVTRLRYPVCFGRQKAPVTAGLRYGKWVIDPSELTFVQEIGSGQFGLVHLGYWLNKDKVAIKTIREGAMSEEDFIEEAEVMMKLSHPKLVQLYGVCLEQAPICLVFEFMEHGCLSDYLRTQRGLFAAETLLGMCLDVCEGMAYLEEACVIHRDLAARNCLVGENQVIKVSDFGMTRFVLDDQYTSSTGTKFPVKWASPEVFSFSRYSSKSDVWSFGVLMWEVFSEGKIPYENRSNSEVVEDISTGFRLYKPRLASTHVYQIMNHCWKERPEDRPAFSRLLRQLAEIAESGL
Experiment: Binding affinity to ITK by DELFIA-based molecular assay
Conditions: not given

With `CC(C)(O)Cn1c(NC(=O)c2ccc(-c3cn[nH]c3)s2)nc2cc(CN)ccc21` as the compound, how does the IC50 read?
The IC50 was 4 nM.

Which IC50 does the source give for `C[C@H](N(C)Cc1ccc2c(c1)[nH]/c(=N\C(=O)c1ccc(-c3cn[nH]c3)s1)n2CC(C)(C)O)C(C)(C)C` here?
Its IC50 is 1 nM.

For `CCC(C)NCc1ccc2c(c1)nc(NC(=O)c1ccc(-c3cn[nH]c3)s1)n2CC(C)(C)O` (stereo not drawn), which IC50 is on record?
Its IC50 is 2 nM.

For `C[C@H](NCc1ccc2c(c1)[nH]/c(=N\C(=O)c1ccc(-c3cn[nH]c3)s1)n2CC(C)(C)O)C(C)(C)C`, which IC50 is on record?
Its IC50 is 1 nM.

For `CC(C)(O)Cn1c(NC(=O)c2ccc(-c3cn[nH]c3)s2)nc2cc(CNc3ccccc3)ccc21`, which IC50 is on record?
The IC50 was 2 nM.

With `CC(C)(O)Cn1/c(=N/C(=O)c2ccc(-c3cn[nH]c3)s2)[nH]c2cc(CN3CCCCC3CO)ccc21` (stereo not drawn) as the compound, how does the IC50 read?
The IC50 was 3 nM.

Biological target: T1, Tyrosine-protein kinase ITK/TSK
Experiment: Inhibition of ITK in presence of 1 mM ATP
Conditions: not given

Which IC50 does the source give for `CC(C)(O)Cn1c(NC(=O)c2ccc(-c3cn[nH]c3)s2)nc2cc(CN)ccc21` here?
Its IC50 is 900 nM.

Which IC50 does the source give for `C[C@H](N(C)Cc1ccc2c(c1)[nH]/c(=N\C(=O)c1ccc(-c3cn[nH]c3)s1)n2CC(C)(C)O)C(C)(C)C` here?
Its IC50 is 8 nM.

For `CCC(C)NCc1ccc2c(c1)nc(NC(=O)c1ccc(-c3cn[nH]c3)s1)n2CC(C)(C)O` (stereo not drawn), which IC50 is on record?
Its IC50 is 390 nM.

Which IC50 does the source give for `C[C@H](NCc1ccc2c(c1)[nH]/c(=N\C(=O)c1ccc(-c3cn[nH]c3)s1)n2CC(C)(C)O)C(C)(C)C` here?
Its IC50 is 13 nM.

With `CC(C)(O)Cn1c(NC(=O)c2ccc(-c3cn[nH]c3)s2)nc2cc(CNc3ccccc3)ccc21` as the compound, how does the IC50 read?
The IC50 was 75 nM.

With `CC(C)(O)Cn1/c(=N/C(=O)c2ccc(-c3cn[nH]c3)s2)[nH]c2cc(CN3CCCCC3CO)ccc21` (stereo not drawn) as the compound, how does the IC50 read?
Its IC50 is 660 nM.

Biological target: Insulin receptor (Homo sapiens, UniProt P06213)
Sequence (P06213 28-758 limits assumed): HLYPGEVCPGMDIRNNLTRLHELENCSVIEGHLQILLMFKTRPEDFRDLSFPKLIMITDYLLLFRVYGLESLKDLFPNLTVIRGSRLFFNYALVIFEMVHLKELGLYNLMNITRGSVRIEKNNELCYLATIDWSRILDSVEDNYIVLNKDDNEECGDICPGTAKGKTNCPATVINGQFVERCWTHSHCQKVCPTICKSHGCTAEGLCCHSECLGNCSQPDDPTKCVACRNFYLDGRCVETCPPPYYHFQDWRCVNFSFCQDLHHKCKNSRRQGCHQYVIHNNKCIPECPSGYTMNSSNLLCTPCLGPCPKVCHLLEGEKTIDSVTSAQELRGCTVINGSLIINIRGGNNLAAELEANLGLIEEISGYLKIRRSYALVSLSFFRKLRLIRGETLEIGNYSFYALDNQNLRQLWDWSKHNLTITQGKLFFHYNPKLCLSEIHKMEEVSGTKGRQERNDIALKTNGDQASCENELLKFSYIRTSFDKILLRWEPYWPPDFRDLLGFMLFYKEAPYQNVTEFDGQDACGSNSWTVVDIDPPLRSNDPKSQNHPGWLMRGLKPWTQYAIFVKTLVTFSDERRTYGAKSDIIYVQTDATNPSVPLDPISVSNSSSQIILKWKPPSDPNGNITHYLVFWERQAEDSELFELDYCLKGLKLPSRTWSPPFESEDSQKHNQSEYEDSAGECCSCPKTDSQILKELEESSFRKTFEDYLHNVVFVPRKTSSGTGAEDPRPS
Sequence (P06213 763-1382 limits assumed): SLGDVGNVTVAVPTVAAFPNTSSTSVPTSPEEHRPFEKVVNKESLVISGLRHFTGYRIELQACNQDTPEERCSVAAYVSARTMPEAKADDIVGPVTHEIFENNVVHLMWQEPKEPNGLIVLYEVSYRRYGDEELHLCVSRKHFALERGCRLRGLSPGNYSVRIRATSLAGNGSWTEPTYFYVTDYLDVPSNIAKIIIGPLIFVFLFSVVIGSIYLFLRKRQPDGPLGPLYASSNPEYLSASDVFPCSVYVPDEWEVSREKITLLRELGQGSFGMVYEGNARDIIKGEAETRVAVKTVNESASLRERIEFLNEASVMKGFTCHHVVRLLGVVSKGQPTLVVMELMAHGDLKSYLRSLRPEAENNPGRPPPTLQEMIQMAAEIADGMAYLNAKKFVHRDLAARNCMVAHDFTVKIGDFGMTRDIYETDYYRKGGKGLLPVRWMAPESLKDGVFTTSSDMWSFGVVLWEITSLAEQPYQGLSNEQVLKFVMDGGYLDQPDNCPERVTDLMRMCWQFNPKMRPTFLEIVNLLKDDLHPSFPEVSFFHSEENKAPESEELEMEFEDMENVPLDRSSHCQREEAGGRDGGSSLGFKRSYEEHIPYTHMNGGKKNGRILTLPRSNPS
Experiment: Inhibition of IRK
Conditions: not given

Which IC50 does the source give for `CC(C)(O)Cn1c(NC(=O)c2ccc(-c3cn[nH]c3)s2)nc2cc(CN)ccc21` here?
Its IC50 is 1200 nM.

For `C[C@H](N(C)Cc1ccc2c(c1)[nH]/c(=N\C(=O)c1ccc(-c3cn[nH]c3)s1)n2CC(C)(C)O)C(C)(C)C`, which IC50 is on record?
Its IC50 is 400 nM.

With `CCC(C)NCc1ccc2c(c1)nc(NC(=O)c1ccc(-c3cn[nH]c3)s1)n2CC(C)(C)O` (stereo not drawn) as the compound, how does the IC50 read?
Its IC50 is 600 nM.

Which IC50 does the source give for `C[C@H](NCc1ccc2c(c1)[nH]/c(=N\C(=O)c1ccc(-c3cn[nH]c3)s1)n2CC(C)(C)O)C(C)(C)C` here?
Its IC50 is 160 nM.

For `CC(C)(O)Cn1c(NC(=O)c2ccc(-c3cn[nH]c3)s2)nc2cc(CNc3ccccc3)ccc21`, which IC50 is on record?
Its IC50 is 1700 nM.

Which IC50 does the source give for `CC(C)(O)Cn1/c(=N/C(=O)c2ccc(-c3cn[nH]c3)s2)[nH]c2cc(CN3CCCCC3CO)ccc21` (stereo not drawn) here?
Its IC50 is 1100 nM.

Biological target: T1, Tyrosine-protein kinase ITK/TSK
Experiment: Antagonist activity at human ITK expressed in BTK deficient DT40 cells assessed as inhibition of B cell receptor-stimulated calcium influx
Type: functional, cell-based
Conditions: not given

With `CC(C)(O)Cn1c(NC(=O)c2ccc(-c3cn[nH]c3)s2)nc2cc(CN)ccc21` as the compound, how does the IC50 read?
The IC50 was greater than 5000 nM.

For `C[C@H](N(C)Cc1ccc2c(c1)[nH]/c(=N\C(=O)c1ccc(-c3cn[nH]c3)s1)n2CC(C)(C)O)C(C)(C)C`, which IC50 is on record?
Its IC50 is 3 nM.

Which IC50 does the source give for `CCC(C)NCc1ccc2c(c1)nc(NC(=O)c1ccc(-c3cn[nH]c3)s1)n2CC(C)(C)O` (stereo not drawn) here?
Its IC50 is 25 nM.

For `C[C@H](NCc1ccc2c(c1)[nH]/c(=N\C(=O)c1ccc(-c3cn[nH]c3)s1)n2CC(C)(C)O)C(C)(C)C`, which IC50 is on record?
The IC50 was 4 nM.

Which IC50 does the source give for `CC(C)(O)Cn1c(NC(=O)c2ccc(-c3cn[nH]c3)s2)nc2cc(CNc3ccccc3)ccc21` here?
Its IC50 is 21 nM.

For `CC(C)(O)Cn1/c(=N/C(=O)c2ccc(-c3cn[nH]c3)s2)[nH]c2cc(CN3CCCCC3CO)ccc21` (stereo not drawn), which IC50 is on record?
The IC50 was 58 nM.

Tested on: T-cell
Experiment: Inhibition of anti-CD3 and anti-CD28 monoclonal antibody-stimulated IL2 secretion in human CD4+ T cells
Type: functional, cell-based
Conditions: not given

With `C[C@H](N(C)Cc1ccc2c(c1)[nH]/c(=N\C(=O)c1ccc(-c3cn[nH]c3)s1)n2CC(C)(C)O)C(C)(C)C` as the compound, how does the IC50 read?
Its IC50 is 18 nM.

For `CCC(C)NCc1ccc2c(c1)nc(NC(=O)c1ccc(-c3cn[nH]c3)s1)n2CC(C)(C)O` (stereo not drawn), which IC50 is on record?
Its IC50 is 23 nM.

Which IC50 does the source give for `C[C@H](NCc1ccc2c(c1)[nH]/c(=N\C(=O)c1ccc(-c3cn[nH]c3)s1)n2CC(C)(C)O)C(C)(C)C` here?
The IC50 was 20 nM.

Which IC50 does the source give for `CC(C)(O)Cn1c(NC(=O)c2ccc(-c3cn[nH]c3)s2)nc2cc(CNc3ccccc3)ccc21` here?
Its IC50 is 150 nM.

Tested on: not listed separately
Experiment: Terminal half life in Sprague-Dawley rat at 1 mg/kg, iv
Type: ADME, organism-based
Parameters: dose 1 mg/kg, route intravenous
Conditions: in vivo, read-out: beta t1/2 (converted)

With `C[C@H](NCc1ccc2c(c1)[nH]/c(=N\C(=O)c1ccc(-c3cn[nH]c3)s1)n2CC(C)(C)O)C(C)(C)C` as the compound, how does the half-life read?
The half-life was 2.5 h.

Tested on: not listed separately
Experiment: Volume of distribution at steady state in Sprague-Dawley rat at 1 mg/kg, iv
Type: ADME, organism-based
Parameters: dose 1 mg/kg, route intravenous
Conditions: in vivo, read-out: Vdss

For `C[C@H](NCc1ccc2c(c1)[nH]/c(=N\C(=O)c1ccc(-c3cn[nH]c3)s1)n2CC(C)(C)O)C(C)(C)C`, which Vd is on record?
Its Vd is 11.6 L/kg.

Tested on: not listed separately
Experiment: Plasma clearance in Sprague-Dawley rat at 1 mg/kg, iv
Type: ADME, organism-based
Parameters: dose 1 mg/kg, route intravenous
Conditions: not given

Which clearance does the source give for `C[C@H](NCc1ccc2c(c1)[nH]/c(=N\C(=O)c1ccc(-c3cn[nH]c3)s1)n2CC(C)(C)O)C(C)(C)C` here?
Its clearance is 53.1 mL/min/kg.

Tested on: not listed separately
Experiment: AUC (0 to infinity) in Sprague-Dawley rat at 1 mg/kg, iv
Type: ADME, organism-based
Parameters: time infinity, dose 1 mg/kg, route intravenous
Conditions: plasma

For `C[C@H](NCc1ccc2c(c1)[nH]/c(=N\C(=O)c1ccc(-c3cn[nH]c3)s1)n2CC(C)(C)O)C(C)(C)C`, which AUC(0-inf) is on record?
Its AUC(0-inf) is 314 ng·h/mL.

Tested on: not listed separately
Experiment: Tmax in Sprague-Dawley rat at 10 mg/kg, po
Type: ADME, organism-based
Parameters: dose 10 mg/kg, route oral
Conditions: in vivo

With `C[C@H](NCc1ccc2c(c1)[nH]/c(=N\C(=O)c1ccc(-c3cn[nH]c3)s1)n2CC(C)(C)O)C(C)(C)C` as the compound, how does the Tmax read?
The Tmax was 1.2 h.

Tested on: not listed separately
Experiment: Cmax in Sprague-Dawley rat at 10 mg/kg, po
Type: ADME, organism-based
Parameters: dose 10 mg/kg, route oral
Conditions: in vivo

With `C[C@H](NCc1ccc2c(c1)[nH]/c(=N\C(=O)c1ccc(-c3cn[nH]c3)s1)n2CC(C)(C)O)C(C)(C)C` as the compound, how does the Cmax read?
The Cmax was 92 ng/mL.

Tested on: not listed separately
Experiment: AUC (0 to infinity) in Sprague-Dawley rat at 10 mg/kg, po
Type: ADME, organism-based
Parameters: time infinity, dose 10 mg/kg, route oral
Conditions: plasma

With `C[C@H](NCc1ccc2c(c1)[nH]/c(=N\C(=O)c1ccc(-c3cn[nH]c3)s1)n2CC(C)(C)O)C(C)(C)C` as the compound, how does the AUC(0-inf) read?
The AUC(0-inf) was 659 ng·h/mL.

Tested on: not listed separately
Experiment: Oral bioavailability in Sprague-Dawley rat at 10 mg/kg
Type: ADME, organism-based
Conditions: in vivo

Which bioavailability does the source give for `C[C@H](NCc1ccc2c(c1)[nH]/c(=N\C(=O)c1ccc(-c3cn[nH]c3)s1)n2CC(C)(C)O)C(C)(C)C` here?
Its bioavailability is 21%.

Tested on: Blood
Experiment: Inhibition of staphylococcal entertoxin B-stimulated IL2 secretion in human whole blood
Type: functional, tissue-based
Conditions: not given

With `C[C@H](N(C)Cc1ccc2c(c1)[nH]/c(=N\C(=O)c1ccc(-c3cn[nH]c3)s1)n2CC(C)(C)O)C(C)(C)C` as the compound, how does the IC50 read?
Its IC50 is 690 nM.

With `C[C@H](NCc1ccc2c(c1)[nH]/c(=N\C(=O)c1ccc(-c3cn[nH]c3)s1)n2CC(C)(C)O)C(C)(C)C` as the compound, how does the IC50 read?
The IC50 was 240 nM.

Tested on: Mus musculus
Experiment: Inhibition of anti-CD3-stimulated IL2 production in po dosed BALB/c mouse administered 5 hrs before anti-CD3 challenge measured after 3 hrs
Type: functional, organism-based
Conditions: not given

Which Activity does the source give for `C[C@H](NCc1ccc2c(c1)[nH]/c(=N\C(=O)c1ccc(-c3cn[nH]c3)s1)n2CC(C)(C)O)C(C)(C)C` here?
Its Activity is “Dose-dependent effect”.

Tested on: Mus musculus
Experiment: Inhibition of anti-CD3-stimulated IL4 production in po dosed BALB/c mouse administered 5 hrs before anti-CD3 challenge measured after 3 hrs
Type: functional, organism-based
Conditions: not given

With `C[C@H](NCc1ccc2c(c1)[nH]/c(=N\C(=O)c1ccc(-c3cn[nH]c3)s1)n2CC(C)(C)O)C(C)(C)C` as the compound, how does the Activity read?
The Activity was “Dose-dependent effect”.

Tested on: not listed separately
Experiment: Terminal plasma concentration in BALB/c mouse at 15 mg/kg, po after 8 hrs
Type: ADME, organism-based
Parameters: dose 15 mg/kg, route oral
Conditions: read-out: Cp(T)

With `C[C@H](NCc1ccc2c(c1)[nH]/c(=N\C(=O)c1ccc(-c3cn[nH]c3)s1)n2CC(C)(C)O)C(C)(C)C` as the compound, how does the concentration at 8 h read?
The concentration at 8 h was 1300 nM.

Tested on: not listed separately
Experiment: Terminal plasma concentration in BALB/c mouse at 5 mg/kg, po after 8 hrs
Type: ADME, organism-based
Parameters: dose 5 mg/kg, route oral
Conditions: read-out: Cp(T)

Which concentration at 8 h does the source give for `C[C@H](NCc1ccc2c(c1)[nH]/c(=N\C(=O)c1ccc(-c3cn[nH]c3)s1)n2CC(C)(C)O)C(C)(C)C` here?
The concentration at 8 h was 400 nM.

Tested on: not listed separately
Experiment: Terminal plasma concentration in BALB/c mouse at 1.5 mg/kg, po after 8 hrs
Type: ADME, organism-based
Parameters: dose 1.5 mg/kg, route oral
Conditions: read-out: Cp(T)

Which concentration at 8 h does the source give for `C[C@H](NCc1ccc2c(c1)[nH]/c(=N\C(=O)c1ccc(-c3cn[nH]c3)s1)n2CC(C)(C)O)C(C)(C)C` here?
The concentration at 8 h was 100 nM.
